According to patent US4443619A, “Chlorocitric acids” (Hoffmann-La Roche Inc., priority 1981, dated 1984):

Tests used:
[1] = Effect of stereoisomers of chlorocitric acid on food consumption in meal-fed rats (Example 14); format: in vivo, Charles River female rats; settings: mean ± S.E.
Method: Animals were fasted 48 hr, then meal-fed the 70% glucose diet described by A. C. […] Following 5 to 12 days alimentation on the meal-feeding regimen, rats were dosed with the appropriate compounds orally by intubation 1/2 hr before the 3 hr meal. Food cups were weighed immediately after the meal. The control group consisted of 5 to 10 rats, while the experimental group consisted of 4 to 6 rats.

[2] = Food consumption of three diets in meal-fed rats (Example 15); format: in vivo, Charles River female rats; settings: mean ± S.E.
Method: Charles River female rats (Charles River Breeding Laboratories, Wilmington, Mass.), weighing 170 to 200 g, were individually housed in wire-bottomed cages in a temperature-regulated (22° C.) light-controlled room (12 hr light, 6 a.m. to 6 p.m. and 12 hr dark, 6 p.m. to 6 a.m.). Animals were fasted 48 hr, then meal-fed the indicated diets from 8 to 11 a.m. Following 5 to 12 days alimentation on the meal-feeding regimen, rats were dosed with the appropriate compounds orally by intubation 1/2 hr before the 3 hr meal. Food cups were weighed immediately after the 1st, 2nd and 3rd hr of the meal. The control groups consisted of 8 to 10 rats and the experimental group considered of 5 to 6 rats.

[3] = Body weight and food intake in meal-fed rats, 16 day study (Example 19); format: in vivo, Charles River female rats; settings: 16 days
Method: Two month old Charles River female rats (Charles River Breeding Laboratories, Wilmington, Mass.) were individually housed in wire-bottomedcages in a temperature-regulated (22° C.) light-controlled room (12 hr light, 6 a.m. to 6 p.m. and 12 hr dark, 6 p.m. to 6 a.m.). […] (1) control, (2) (-)-threo-chlorocitric acid (1.0 mmoles/kg, 227 mg/kg) administered by oral intubation 30 min before the 3 hr meal, and (3) (-)-threo-chlorocitric acid (1.1 mmoles/kg, 250 mg/kg) as a dietary admixture for the 3 hr meal. Treatment was continued for 16 days. The amount of body weight gained and food consumed during the study were determined.

[4] = Body composition of meal-fed rats, 16 day study (Example 20); format: in vivo, Charles River female rats; settings: 16 days
Method: Two month old Charles River female rats (Charles River Breeding Laboratories, Wilmington, Mass.) were individually housed in wire-bottomedcages in a temperature-regulated (22° C.) light-controlled room (12 hr light, 6 a.m. to 6 p.m. and 12 hr dark, 6 p.m. to 6 a.m.). […] (1) control, (2) (-)-threo-chlorocitric acid (1.0 mmoles/kg, 227 mg/kg) administered by oral intubation 30 min before the 3 hr meal, and (3) (-)-threo-chlorocitric acid (1.1 mmoles/kg, 250 mg/kg as a dietary admixture for the 3 hr meal. Treatment was continued for 16 days. After 16 days of treatment, rats were killed by decapitation and blood was removed. […] C. Sullivan, et al, Am. J. Clinical Nutrition, 30 767 (1977). […] Total carcass lipid data are expressed in grams of percentages of carcass weight. An aliquot of saponified carcass extract was neutralized and total carcass nitrogen was determined using the Kjeldahl procedure described in "Hawks" Physiological Chemistry," B. L. Oser, ed., McGraw Book Co., New York, N.Y., 1965, page 1214. Carcass protein data are expressed in grams and percentages of carcass weight.

[5] = Body weight and food intake in meal-fed rats, oral administration, 17 day study (Example 21); format: in vivo, Charles River female rats; settings: 17 days
Method: Two month old Charles River female rats (Charles River Breeding Laboratories, Wilmington, Mass.) were individually housed in wire-bottomedcages in a temperature-regulated (22° C.) light-controlled room (12 hr light, 6 a.m. to 6 p.m. and 12 hr dark, 6 p.m. to 6 a.m.). […] On the 8th day, the animals were administered water or (-)-threo-chlorocitric acid at the indicated concentration by oral intubation 30 min before the 3 hr meal. Treatment was continued for 17 days. Food cups were weighed immediately after the meal. The amount of body weight gained and food consumed during the period was determined.

[6] = Food intake in dogs, pyramiding oral doses (Examples 26 and 27); format: in vivo, beagle dogs
Method: Twelve beagle dogs of both sexes weighing 7.6-12.2 kg were used for this test. The test compounds were contained in gelatin capsules for oral administration to two dogs of each sex. The animals were weighed and food consumption calculated daily excluding weekends throughout the test period. Each animal received 800 grams of diet daily consisting of 400 grams of Wayne pellet dog food mixed with 400 ml distilled water. The animals received pyramiding oral doses of the test compound over the three week period. On Monday and Tuesday of the first week the animals were weighed and food consumption was recorded (control). The animals received 3 mg/kg on Wednesday and 10 mg/kg on Friday of the first week. Doses of 30, 100 and 300 mg/kg were administered on Monday, Wednesday and Friday respectively during the second week. A final dose of 1000 mg/kg was administered on Monday of the third week.
Food intake was determined by the procedure by pyramiding doses described in Example 26.

[7] = 20% Corn Oil, 0.33 mmoles (75 mg)/kg oral
[8] = 20% Corn Oil, 0.66 mmoles (150 mg)/kg oral
[9] = 70% Glucose, 0.33 mmoles (75 mg)/kg oral
[10] = 70% Glucose, 0.66 mmoles (150 mg)/kg oral
[11] = Chow, 0.33 mmoles (75 mg)/kg oral
[12] = Chow, 0.66 mmoles (150 mg)/kg oral
[13] = dietary admixture, 1.1 mmoles (250 mg)/kg/day
[14] = oral intubation, 1.0 mmoles (227 mg)/kg/day
[15] = dietary admixture, 1.1 mmoles (250 mg)/kg
[16] = oral intubation, 1.0 mmoles (227 mg)/kg
[17] = G-70, 0.25 mmoles (57 mg)/kg oral
[18] = G-70, 0.50 mmoles (114 mg)/kg oral
[19] = G-70, 1.00 mmoles (227 mg)/kg oral
[20] = test day 20, no dose, (±) one animal, (+) and (-) two animals

Structure (SMILES): O=C(O)C[C@@](O)(C(=O)O)[C@@H](Cl)C(=O)O [(-)-threo-Chlorocitric acid, (-)-threo-chlorocitric acid]
- Food consumption ([1]; 0.66 mmoles/kg oral, control 8.2 ± 1.2): 4.8 ± 0.7 g
- Food consumption ([1]; 2.63 mmoles/kg oral, control 13.5 ± 0.8): 2.2 ± 0.5 g
- Food intake, 1st hr [2, 7]: 4.0 ± 0.6 g
- Food intake, 2nd hr [2, 7]: 1.6 ± 1.1 g
- Food intake, 3rd hr [2, 7]: 1.3 ± 0.5 g
- Food intake, Total [2, 7]: 6.8 ± 1.6 g
- Food intake, 1st hr [2, 8]: 3.6 ± 0.6 g
- Food intake, 2nd hr [2, 8]: 2.2 ± 0.4 g
- Food intake, 3rd hr [2, 8]: 1.3 ± 0.4 g
- Food intake, Total [2, 8]: 7.1 ± 0.9 g
- Food intake, 1st hr [2, 9]: 2.2 ± 0.5 g
- Food intake, 2nd hr [2, 9]: 2.2 ± 0.5 g
- Food intake, 3rd hr [2, 9]: 3.8 ± 0.4 g
- Food intake, Total [2, 9]: 8.2 ± 1.1 g
- Food intake, 1st hr [2, 10]: 2.7 ± 0.4 g
- Food intake, 2nd hr [2, 10]: 1.7 ± 0.3 g
- Food intake, 3rd hr [2, 10]: 2.3 ± 0.5 g
- Food intake, Total [2, 10]: 6.7 ± 0.7 g
- Food intake, 1st hr [2, 11]: 4.2 ± 1.4 g
- Food intake, 2nd hr [2, 11]: 1.6 ± 0.4 g
- Food intake, 3rd hr [2, 11]: 2.3 ± 0.7 g
- Food intake, Total [2, 11]: 8.1 ± 2.1 g
- Food intake, 1st hr [2, 12]: 3.6 ± 0.9 g
- Food intake, 2nd hr [2, 12]: 1.4 ± 0.2 g
- Food intake, 3rd hr [2, 12]: 1.9 ± 0.4 g
- Food intake, Total [2, 12]: 6.9 ± 1.2 g
- CBWG (cumulative body weight gain) [3, 13]: -8 ± 6 g
- CFC (cumulative food consumption) [3, 13]: 157 ± 9 g
- FBW (final body weight) [3, 13]: 184 ± 8 g
- CBWG (cumulative body weight gain) [3, 14]: -27 ± 4 g
- CFC (cumulative food consumption) [3, 14]: 139 ± 6 g
- FBW (final body weight) [3, 14]: 163 ± 5 g
- Carcass Lipid, % of carcass weight [4, 15]: 4.01 ± 0.45 % of carcass weight
- Carcass Lipid, total [4, 15]: 7.01 ± 0.92 g
- Carcass Nitrogen, % of carcass weight [4, 15]: 4.10 ± 0.14 % of carcass weight
- Carcass Nitrogen, total [4, 15]: 7.16 ± 0.29 g
- Carcass Weight [4, 15]: 176 ± 8 g
- Carcass Lipid, % of carcass weight [4, 16]: 1.94 ± 0.13 % of carcass weight
- Carcass Lipid, total [4, 16]: 2.74 ± 0.19 g
- Carcass Nitrogen, % of carcass weight [4, 16]: 4.27 ± 0.22 % of carcass weight
- Carcass Nitrogen, total [4, 16]: 6.57 ± 0.30 g
- Carcass Weight [4, 16]: 155 ± 4 g
- CBWG (cumulative body weight gain) [5, 17]: 12 ± 4 g
- CFC (cumulative food consumption) [5, 17]: 209 ± 10 g
- FBW (final body weight) [5, 17]: 211 ± 7 g
- CBWG (cumulative body weight gain) [5, 18]: -6 ± 6 g
- CFC (cumulative food consumption) [5, 18]: 176 ± 9 g
- FBW (final body weight) [5, 18]: 188 ± 7 g
- CBWG (cumulative body weight gain) [5, 19]: -29 ± 6 g
- CFC (cumulative food consumption) [5, 19]: 153 ± 4 g
- FBW (final body weight) [5, 19]: 169 ± 6 g
- Food Consumption, % of control [6, 20]: 82 % of control
- Food consumption [6, 20]: 607 ± 193 g
- Food consumption ([6]; test days -2, -1, before dosing (control period)): 743 ± 54 g
